Laboratory results as given in patent publication US7074789B2, “Kinase inhibitors” (Amgen Inc., priority 1999, dated 2006).

Columns and labels:
Format in all cases: biochemical
EGFR = target: T1, EGFR (Homo sapiens, UniProt P00533); test: Kinase inhibition assay (33P transfer), EGFR; details: Table 2, kinase inhibition class; read-out: EGFR-1
T1 construct: Kinases are expressed as either kinase domains or full length constructs; made in house
Outline: (§1)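 Activity read as 33P incorporation from ATP into poly(Glu,Tyr) 4:1 or poly(Arg,Ser) 3:1 substrate bound to microtiter plates, measured by scintillation after acid washing. Enzymes were affinity-purified GST or polyHis fusions (kinase domain or full length) from E. coli or baculovirus; IC50 = 50% reduction in labelled phosphate.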

Hck-1 = target: T2, Hck-1 (Homo sapiens, UniProt P08631); test: Kinase inhibition assay (33P transfer), Hck; details: Table 6, Hck-1 kinase inhibition class
T2 construct: Kinases are expressed as either kinase domains or full length constructs; made in house

AKT = target: T3, AKT (Homo sapiens, UniProt Q9Y243); test: Kinase inhibition assay (33P transfer), AKT; details: Table 2, kinase inhibition class; read-out: AKT3-1
T3 construct: Kinases are expressed as either kinase domains or full length constructs; made in house
Outline: (§2)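 Filterless plate radiometric format: immobilized poly(Glu,Tyr) 4:1 or poly(Arg,Ser) 3:1, 33P-labelled ATP, tagged recombinant kinase (some with regulatory partners). Incorporated label counted after phosphoric acid wash.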

c-Met = target: T4, c-Met (Homo sapiens, UniProt P08581); test: Kinase inhibition assay (33P transfer), c-Met; details: Table 2, kinase inhibition class; read-out: Met-1
T4 construct: Kinases are expressed as either kinase domains or full length constructs; made in house
Outline: as §1

Zap-70 = target: T5, Zap-70 (Homo sapiens, UniProt P43403); test: Kinase inhibition assay (33P transfer), Zap-70; details: Table 3; read-out: Zap-1
T5 construct: Kinases are expressed as either kinase domains or full length constructs; made in house
T5 sequence (P43403 1-619): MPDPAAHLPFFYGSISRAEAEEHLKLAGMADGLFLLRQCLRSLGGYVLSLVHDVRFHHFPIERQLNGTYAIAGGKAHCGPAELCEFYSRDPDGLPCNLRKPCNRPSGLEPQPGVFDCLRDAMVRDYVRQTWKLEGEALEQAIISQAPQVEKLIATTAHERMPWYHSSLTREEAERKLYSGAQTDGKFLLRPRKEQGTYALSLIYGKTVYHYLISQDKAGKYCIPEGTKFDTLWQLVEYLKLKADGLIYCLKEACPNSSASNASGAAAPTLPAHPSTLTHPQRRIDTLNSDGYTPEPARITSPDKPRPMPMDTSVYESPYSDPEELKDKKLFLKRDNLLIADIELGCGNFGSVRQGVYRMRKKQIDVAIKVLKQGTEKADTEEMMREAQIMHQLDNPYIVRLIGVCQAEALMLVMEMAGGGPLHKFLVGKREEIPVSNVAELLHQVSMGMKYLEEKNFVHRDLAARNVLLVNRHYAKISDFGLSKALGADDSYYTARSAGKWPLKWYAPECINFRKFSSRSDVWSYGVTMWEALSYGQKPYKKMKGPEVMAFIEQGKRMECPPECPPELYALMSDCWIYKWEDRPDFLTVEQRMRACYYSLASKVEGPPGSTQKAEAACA
Outline: as §2

Flt-1 = target: T6, Flt-1 (Homo sapiens, UniProt P17948); test: Kinase inhibition assay (33P transfer), Flt-1
T6 construct: Kinases are expressed as either kinase domains or full length constructs; made in house
T6 sequence (P17948 27-1338, species assumed): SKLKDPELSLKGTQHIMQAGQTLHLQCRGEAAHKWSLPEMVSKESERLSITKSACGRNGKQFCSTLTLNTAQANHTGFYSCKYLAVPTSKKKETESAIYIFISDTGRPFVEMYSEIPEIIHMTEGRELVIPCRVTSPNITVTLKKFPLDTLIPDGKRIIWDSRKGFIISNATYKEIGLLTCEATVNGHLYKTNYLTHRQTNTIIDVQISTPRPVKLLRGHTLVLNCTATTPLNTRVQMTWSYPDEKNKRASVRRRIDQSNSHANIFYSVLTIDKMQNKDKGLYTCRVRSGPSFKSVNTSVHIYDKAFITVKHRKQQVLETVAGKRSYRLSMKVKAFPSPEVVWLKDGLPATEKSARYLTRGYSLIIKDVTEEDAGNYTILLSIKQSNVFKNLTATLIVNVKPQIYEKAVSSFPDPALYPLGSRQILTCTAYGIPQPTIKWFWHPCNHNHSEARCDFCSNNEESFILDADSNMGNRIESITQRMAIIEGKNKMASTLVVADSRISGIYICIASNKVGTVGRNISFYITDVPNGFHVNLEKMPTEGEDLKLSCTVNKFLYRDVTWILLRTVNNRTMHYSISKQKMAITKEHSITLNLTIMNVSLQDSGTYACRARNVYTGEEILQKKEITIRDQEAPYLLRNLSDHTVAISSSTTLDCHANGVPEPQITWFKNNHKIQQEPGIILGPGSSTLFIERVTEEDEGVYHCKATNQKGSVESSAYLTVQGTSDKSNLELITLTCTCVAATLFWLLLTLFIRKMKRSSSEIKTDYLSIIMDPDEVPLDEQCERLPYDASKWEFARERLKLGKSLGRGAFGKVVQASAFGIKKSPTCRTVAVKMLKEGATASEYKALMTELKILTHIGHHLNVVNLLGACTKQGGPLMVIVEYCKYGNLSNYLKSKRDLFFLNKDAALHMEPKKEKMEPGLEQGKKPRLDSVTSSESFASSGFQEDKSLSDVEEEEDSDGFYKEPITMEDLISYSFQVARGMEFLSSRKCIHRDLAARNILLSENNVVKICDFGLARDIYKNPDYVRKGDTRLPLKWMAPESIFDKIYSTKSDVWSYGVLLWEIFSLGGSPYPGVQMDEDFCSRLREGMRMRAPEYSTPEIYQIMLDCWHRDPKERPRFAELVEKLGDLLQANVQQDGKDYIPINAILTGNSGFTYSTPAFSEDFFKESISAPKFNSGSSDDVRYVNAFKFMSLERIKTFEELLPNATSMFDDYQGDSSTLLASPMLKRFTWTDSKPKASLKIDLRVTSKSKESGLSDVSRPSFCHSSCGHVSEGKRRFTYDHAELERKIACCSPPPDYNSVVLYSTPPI
Outline: as §1

Src = target: T7, Src (Homo sapiens, UniProt P12931); test: Kinase inhibition assay (33P transfer), Src; details: Table 6, Src-1 kinase inhibition class
T7 construct: Kinases are expressed as either kinase domains or full length constructs; made in house
T7 sequence (P12931 whole entry, species assumed, the tested form may be a part): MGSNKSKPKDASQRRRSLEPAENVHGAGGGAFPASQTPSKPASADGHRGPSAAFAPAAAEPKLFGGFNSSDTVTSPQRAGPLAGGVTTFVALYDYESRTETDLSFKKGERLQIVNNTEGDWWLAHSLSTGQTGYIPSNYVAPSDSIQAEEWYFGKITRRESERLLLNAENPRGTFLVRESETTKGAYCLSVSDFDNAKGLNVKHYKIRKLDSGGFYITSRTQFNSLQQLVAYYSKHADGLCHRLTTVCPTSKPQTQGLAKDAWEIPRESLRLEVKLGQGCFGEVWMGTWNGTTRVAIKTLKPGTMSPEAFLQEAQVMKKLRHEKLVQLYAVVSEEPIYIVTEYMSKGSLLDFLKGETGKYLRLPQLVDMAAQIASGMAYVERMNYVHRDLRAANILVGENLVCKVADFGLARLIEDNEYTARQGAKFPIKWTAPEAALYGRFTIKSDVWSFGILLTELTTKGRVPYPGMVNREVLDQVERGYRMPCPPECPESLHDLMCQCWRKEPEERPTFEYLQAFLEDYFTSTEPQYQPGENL
Description: (§3) The inhibitor compounds described herein are screened in the following manner. Kinases suitable for use in the following protocol to determine kinase activity of the compounds described herein include, -but are not limited to: Lck, Lyn, Src, Fyn, Syk, Zap-70, Itk, Tec, Btk, EGFR, ErbB2, Kdr, Flt-1, Flt-3, Tek, c-Met, InsR, and AKT.
(§4) Kinases are expressed as either kinase domains or full length constructs fused to glutathione S-transferase (GST) or polyHistidine tagged fusion proteins in either E. colior Baculovirus-High Five expression systems. They are purified to near homogeneity by affinity chromatography essentially as previously described (Lehr et al., 1996; Gish et al., 1995). In some instances, kinases are co-expressed or mixed with purified or partially purified regulatory polypeptides prior to measurement of activity.
(§5) Kinase activity and inhibition are measured essentially by established protocols (Braunwalder et al., 1996). Briefly, The transfer of ^33PO4 from ATP to the synthetic substrates poly(Glu, Tyr) 4:1 or poly(Arg, Ser) 3:1 attached to the bioactive surface of microtiter plates serves as the basis to evaluate enzyme activity. After an incubation period, the amount of phosphate transferred is measured by first washing the plate with 0.5% phosphoric acid, adding liquid scintillant, and then counting in a liquid scintillation detector. The IC50 is determined by the concentration of compound that causes a 50% reduction in the amount of […] incorporated onto the substrate bound to the plate.

Kdr = target: T8, Kdr (Homo sapiens, UniProt P35968); test: Kinase inhibition assay (33P transfer), Kdr; details: Table 3; read-out: KDR-1
T8 construct: Kinases are expressed as either kinase domains or full length constructs; made in house
Outline: as §2

Lck = target: T9, Lck (Homo sapiens, UniProt P06239); test: Kinase inhibition assay (33P transfer), Lck; details: Table 3; read-out: Lck-1
T9 construct: Kinases are expressed as either kinase domains or full length constructs; made in house
Outline: as §2

Lyn = target: T10, Lyn (Homo sapiens, UniProt P07948); test: Kinase inhibition assay (33P transfer), Lyn; details: Table 6, Lyn-1 kinase inhibition class
T10 construct: Kinases are expressed as either kinase domains or full length constructs; made in house
T10 sequence (P07948 whole entry, species assumed, the tested form may be a part): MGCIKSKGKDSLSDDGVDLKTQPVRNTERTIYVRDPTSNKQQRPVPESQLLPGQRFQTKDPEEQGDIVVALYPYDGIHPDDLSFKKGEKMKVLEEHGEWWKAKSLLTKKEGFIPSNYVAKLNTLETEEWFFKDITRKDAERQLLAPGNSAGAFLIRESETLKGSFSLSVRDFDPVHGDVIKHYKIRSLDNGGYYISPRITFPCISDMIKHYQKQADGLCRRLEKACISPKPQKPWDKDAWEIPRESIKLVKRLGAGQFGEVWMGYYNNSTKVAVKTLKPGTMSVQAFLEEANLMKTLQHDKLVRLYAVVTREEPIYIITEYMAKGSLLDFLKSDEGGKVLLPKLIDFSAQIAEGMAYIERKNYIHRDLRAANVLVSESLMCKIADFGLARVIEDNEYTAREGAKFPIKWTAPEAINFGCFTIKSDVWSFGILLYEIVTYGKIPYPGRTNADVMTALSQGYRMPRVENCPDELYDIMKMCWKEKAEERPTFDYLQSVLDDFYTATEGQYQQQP
Description: as §3, §4, §5

FGFR1 = target: T11, FGFR1 (Homo sapiens, UniProt P11362); test: Kinase inhibition assay (33P transfer), FGFR1; details: read-out: FGFR1-1
T11 construct: Kinases are expressed as either kinase domains or full length constructs; made in house

ErbB4 = target: T12, ErbB4 (Homo sapiens, UniProt Q15303); test: Kinase inhibition assay (33P transfer), ErbB4; details: read-out: ErbB4-1
T12 construct: Kinases are expressed as either kinase domains or full length constructs; made in house
T12 sequence (Q15303 26-1308, species assumed): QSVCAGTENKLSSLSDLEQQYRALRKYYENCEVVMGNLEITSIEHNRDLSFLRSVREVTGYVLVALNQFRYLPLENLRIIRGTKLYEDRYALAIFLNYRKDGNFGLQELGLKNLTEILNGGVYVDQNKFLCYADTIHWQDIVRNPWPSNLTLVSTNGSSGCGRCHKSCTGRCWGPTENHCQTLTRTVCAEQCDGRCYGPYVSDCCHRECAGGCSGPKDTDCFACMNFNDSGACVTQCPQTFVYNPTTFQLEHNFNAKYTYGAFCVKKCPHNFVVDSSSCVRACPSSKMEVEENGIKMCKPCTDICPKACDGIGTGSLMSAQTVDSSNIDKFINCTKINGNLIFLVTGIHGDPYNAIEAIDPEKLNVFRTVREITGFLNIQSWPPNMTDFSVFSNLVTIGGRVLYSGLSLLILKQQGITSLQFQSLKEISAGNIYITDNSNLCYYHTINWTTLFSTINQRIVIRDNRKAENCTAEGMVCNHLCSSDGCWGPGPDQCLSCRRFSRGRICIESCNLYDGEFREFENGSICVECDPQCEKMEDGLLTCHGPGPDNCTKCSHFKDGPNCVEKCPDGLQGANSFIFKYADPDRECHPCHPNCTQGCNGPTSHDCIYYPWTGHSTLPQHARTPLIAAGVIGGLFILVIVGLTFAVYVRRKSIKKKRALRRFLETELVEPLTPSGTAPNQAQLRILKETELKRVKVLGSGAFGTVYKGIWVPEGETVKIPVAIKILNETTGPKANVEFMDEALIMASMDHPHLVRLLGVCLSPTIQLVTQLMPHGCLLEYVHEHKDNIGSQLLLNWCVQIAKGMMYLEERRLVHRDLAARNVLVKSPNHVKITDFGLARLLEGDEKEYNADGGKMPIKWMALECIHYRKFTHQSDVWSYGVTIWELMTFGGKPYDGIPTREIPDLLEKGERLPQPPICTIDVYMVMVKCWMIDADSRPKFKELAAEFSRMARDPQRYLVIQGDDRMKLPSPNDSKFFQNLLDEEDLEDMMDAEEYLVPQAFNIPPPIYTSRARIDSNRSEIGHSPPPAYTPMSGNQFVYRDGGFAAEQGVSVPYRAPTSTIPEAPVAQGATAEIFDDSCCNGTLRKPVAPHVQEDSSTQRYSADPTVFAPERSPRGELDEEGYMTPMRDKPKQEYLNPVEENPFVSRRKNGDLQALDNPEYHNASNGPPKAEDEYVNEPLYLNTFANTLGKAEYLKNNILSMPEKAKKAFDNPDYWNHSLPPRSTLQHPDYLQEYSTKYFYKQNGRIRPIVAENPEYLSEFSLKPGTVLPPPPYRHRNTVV

Fyn = target: T13, Fyn (Homo sapiens, UniProt P06241); test: Kinase inhibition assay (33P transfer), Fyn; details: read-out: Fyn-1
T13 construct: Kinases are expressed as either kinase domains or full length constructs; made in house
Description: as §3, §4, §5

Tek = target: T14, Tek (Homo sapiens, UniProt Q02763); test: Kinase inhibition assay (33P transfer), Tek; details: read-out: Tek-1
T14 construct: Kinases are expressed as either kinase domains or full length constructs; made in house
Outline: as §1

PDGFRB = target: T15, PDGFRB (Homo sapiens, UniProt P09619); test: Kinase inhibition assay (33P transfer), PDGFRB; details: read-out: PDGFRB-1
T15 construct: Kinases are expressed as either kinase domains or full length constructs; made in house
T15 sequence (P09619 33-1106, species assumed): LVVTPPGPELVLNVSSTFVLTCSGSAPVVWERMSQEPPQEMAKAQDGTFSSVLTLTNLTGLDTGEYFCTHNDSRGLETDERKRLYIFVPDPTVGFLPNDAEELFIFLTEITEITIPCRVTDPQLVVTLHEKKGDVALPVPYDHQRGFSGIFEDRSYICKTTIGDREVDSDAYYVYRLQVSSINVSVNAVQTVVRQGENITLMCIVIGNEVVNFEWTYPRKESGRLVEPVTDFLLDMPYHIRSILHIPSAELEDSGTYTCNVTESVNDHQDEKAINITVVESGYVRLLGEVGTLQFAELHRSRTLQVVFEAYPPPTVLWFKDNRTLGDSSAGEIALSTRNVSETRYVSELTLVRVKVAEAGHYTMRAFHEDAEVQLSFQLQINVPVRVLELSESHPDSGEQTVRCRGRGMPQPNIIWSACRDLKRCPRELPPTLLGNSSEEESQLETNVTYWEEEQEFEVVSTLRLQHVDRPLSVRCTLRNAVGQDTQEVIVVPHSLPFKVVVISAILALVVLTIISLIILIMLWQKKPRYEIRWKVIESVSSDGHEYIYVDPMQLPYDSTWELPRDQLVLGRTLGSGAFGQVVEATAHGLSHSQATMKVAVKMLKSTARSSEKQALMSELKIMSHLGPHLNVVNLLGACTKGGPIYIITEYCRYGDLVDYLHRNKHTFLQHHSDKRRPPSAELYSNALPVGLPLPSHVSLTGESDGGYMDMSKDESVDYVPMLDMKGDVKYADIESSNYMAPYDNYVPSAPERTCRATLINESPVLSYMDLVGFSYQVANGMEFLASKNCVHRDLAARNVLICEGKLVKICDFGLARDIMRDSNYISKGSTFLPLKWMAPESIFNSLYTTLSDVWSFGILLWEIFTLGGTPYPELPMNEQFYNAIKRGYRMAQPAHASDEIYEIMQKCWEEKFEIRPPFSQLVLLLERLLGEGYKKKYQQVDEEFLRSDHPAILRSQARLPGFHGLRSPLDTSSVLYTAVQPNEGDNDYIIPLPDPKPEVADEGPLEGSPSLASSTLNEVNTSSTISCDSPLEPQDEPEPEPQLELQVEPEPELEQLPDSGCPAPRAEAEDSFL

Itk = target: T16, Itk (Homo sapiens, UniProt Q08881); test: Kinase inhibition assay (33P transfer), Itk; details: Table 3; read-out: Itk-1
T16 construct: Kinases are expressed as either kinase domains or full length constructs; made in house
T16 sequence (Q08881 1-620): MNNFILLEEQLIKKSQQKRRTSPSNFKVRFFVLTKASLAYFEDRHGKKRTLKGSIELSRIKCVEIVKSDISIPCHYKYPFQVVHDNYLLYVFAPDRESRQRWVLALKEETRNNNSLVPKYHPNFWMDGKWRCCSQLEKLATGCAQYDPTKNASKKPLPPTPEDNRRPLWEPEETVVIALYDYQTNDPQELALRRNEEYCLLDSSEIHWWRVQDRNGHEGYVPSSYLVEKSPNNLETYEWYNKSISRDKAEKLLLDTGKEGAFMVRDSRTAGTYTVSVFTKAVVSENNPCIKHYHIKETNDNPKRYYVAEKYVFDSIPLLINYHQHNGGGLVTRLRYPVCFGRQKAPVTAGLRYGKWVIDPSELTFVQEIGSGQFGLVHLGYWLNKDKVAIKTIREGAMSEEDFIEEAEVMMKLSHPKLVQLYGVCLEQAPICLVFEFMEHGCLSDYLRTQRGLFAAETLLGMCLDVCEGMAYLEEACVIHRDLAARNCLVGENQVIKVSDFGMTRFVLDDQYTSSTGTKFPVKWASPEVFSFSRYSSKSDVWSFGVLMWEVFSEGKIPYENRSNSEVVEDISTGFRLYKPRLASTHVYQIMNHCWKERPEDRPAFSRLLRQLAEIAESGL
Outline: as §1

Row | Compound | IC50 (EGFR) [µM] | IC50 (Hck-1) [µM] | IC50 (AKT) [µM] | IC50 (c-Met) [µM] | IC50 (Zap-70) [µM] | IC50 (Flt-1) [µM] | IC50 (Src) [µM] | IC50 (Kdr) [µM] | IC50 (Lck) [µM] | IC50 (Lyn) [µM] | IC50 (FGFR1) [µM] | IC50 (ErbB4) [µM] | IC50 (Fyn) [µM] | IC50 (Tek) [µM] | IC50 (PDGFRB) [µM] | IC50 (Itk) [µM]
1 | CNc1nc2ccccc2n1-c1ncnc(Nc2cc(OC)c(OC)c(OC)c2)n1 [Compound 417] | > 11 | > 11 | > 11 | > 11 | > 11 | 0.982 to 5.89 | 0.982 to 5.89 | < 0.982 | < 0.982 | 0.982 to 5.89 | < 0.982 | > 11 | 5.89 to 8.59 | > 11 | < 0.982 | > 11
2 | COc1cc(Nc2ncnc(N[C@H](CO)c3ccccc3)n2)cc(OC)c1OC [Compound 425] | 1.01 to 6.04 | > 11.3 | > 11.3 | > 11.3 | > 11.3 | > 11.3 | 1.01 to 6.04 | 8.81 to 11.3 | > 11.3 | < 1.01 | 6.04 to 8.81 | > 11.3 | 8.81 to 11.3 | > 11.3 | 1.01 to 6.04 | > 11.3
3 | OCc1cccc(Nc2ncnc(Nc3cc(-c4ccco4)n[nH]3)n2)c1 [Compound 429] | 1.14 to 6.87 | > 12.9 | 1.14 to 6.87 | < 1.14 | > 12.9 | < 1.14 | < 1.14 | < 1.14 | 1.14 to 6.87 | < 1.14 | < 1.14 | 1.14 to 6.87 | 1.14 to 6.87 | 10 to 12.9 | < 1.14 | 1.14 to 6.87
4 | OCc1ccc(Nc2ncnc(Nc3cc(-c4ccco4)n[nH]3)n2)cc1 [Compound 430] | 1.14 to 6.87 | > 12.9 | 1.14 to 6.87 | 1.14 to 6.87 | > 12.9 | 1.14 to 6.87 | 1.14 to 6.87 | < 1.14 | 1.14 to 6.87 | 1.14 to 6.87 | < 1.14 | 1.14 to 6.87 | 1.14 to 6.87 | 1.14 to 6.87 | 1.14 to 6.87 | 1.14 to 6.87
5 | NCc1ccc(Nc2ncnc(Nc3cc(-c4ccco4)n[nH]3)n2)cc1 [Compound 437] | 1.15 to 6.89 | 10 to 12.9 | > 12.9 | 1.15 to 6.89 | > 12.9 | 1.15 to 6.89 | 1.15 to 6.89 | < 1.15 | 1.15 to 6.89 | 1.15 to 6.89 | < 1.15 | 1.15 to 6.89 | 1.15 to 6.89 | 6.89 to 10 | < 1.15 | 1.15 to 6.89
6 | Nc1nc2ccccc2n1-c1ncnc(Nc2cccc(-c3cnco3)c2)n1 [Compound 439] | 1.08 to 6.48 | 1.08 to 6.48 | 1.08 to 6.48 | 1.08 to 6.48 | 6.48 to 9.45 | < 1.08 | 1.08 to 6.48 | < 1.08 | 1.08 to 6.48 | 1.08 to 6.48 | < 1.08 | 1.08 to 6.48 | 1.08 to 6.48 | 1.08 to 6.48 | < 1.08 | 1.08 to 6.48
7 | CC(=O)NS(=O)(=O)c1ccc(Nc2ncnc(-n3c(N)nc4ccccc43)n2)cc1 [Compound 440] | 0.942 to 5.65 | 5.65 to 8.25 | > 10.6 | 0.942 to 5.65 | 0.942 to 5.65 | 0.942 to 5.65 | > 10.6 | 0.942 to 5.65 | 0.942 to 5.65 | 5.65 to 8.25 | 0.942 to 5.65 | 0.942 to 5.65 | 0.942 to 5.65 | 5.65 to 8.25 | 0.942 to 5.65 | 8.25 to 10.6
